# From patent US4717662A (priority 1985, dated 1988)
# Read-outs that look alike come from different tables or passages of the source.
# Tests used:
# [1] = system: alpha-amylase; test: Comparative thermal stability of alpha-amylase with different anions at 90° C.; type: biochemical; settings: percent residual activity versus time at 90° C., FIG. 2
# Procedure: A comparative study was conducted in which the stability of alpha-amylase stabilized with acetate was compared with that containing anions known to have been added to commercially available alpha-amylase solutions. The activity of the various anion containing enzyme solutions was determined as previously described and the percent residual activity plotted as a function of time at 90° C. The results of this study are graphically represented in FIG. 2. The stabilizing effects of the different anions against thermal inactivation of the enzyme followed this order: citrate<sulphate<chloride<acetate.
# [2] = system: alpha-amylase (Taka-Therm L-170); settings: pH 5.5
# Procedure: In a typical run, 70 lbs. of corn starch was suspended in 59 liters of water and the pH adjusted to 5.0 using acetic acid. […] After gelantinization, the starch was flashed into a temperature regulated vessel maintained at 95° C. for continued liquefaction for 2 hours. In another experiment, the liquefaction of starch was carried out at pH 6.3-6.5 (pH adjusted using sodium hydroxide) in the presence of 50 ppm added calcium.
# Calcium chloride was added to a level of 25 ppm (as Ca^++) and the pH adjusted to 5.5 using 10% sodium hydroxide.
# [3] = target: alpha-amylase (Bacillus licheniformis, UniProt P06278); settings: for (-Δ G°) stabilization free energy, R T ln F: 95° C. (T = 368K); for t 1/2: salt added to 1.22 M, diluted 1×100
# Sequence of alpha-amylase (Bacillus licheniformis, UniProt P06278) (P06278 30-512): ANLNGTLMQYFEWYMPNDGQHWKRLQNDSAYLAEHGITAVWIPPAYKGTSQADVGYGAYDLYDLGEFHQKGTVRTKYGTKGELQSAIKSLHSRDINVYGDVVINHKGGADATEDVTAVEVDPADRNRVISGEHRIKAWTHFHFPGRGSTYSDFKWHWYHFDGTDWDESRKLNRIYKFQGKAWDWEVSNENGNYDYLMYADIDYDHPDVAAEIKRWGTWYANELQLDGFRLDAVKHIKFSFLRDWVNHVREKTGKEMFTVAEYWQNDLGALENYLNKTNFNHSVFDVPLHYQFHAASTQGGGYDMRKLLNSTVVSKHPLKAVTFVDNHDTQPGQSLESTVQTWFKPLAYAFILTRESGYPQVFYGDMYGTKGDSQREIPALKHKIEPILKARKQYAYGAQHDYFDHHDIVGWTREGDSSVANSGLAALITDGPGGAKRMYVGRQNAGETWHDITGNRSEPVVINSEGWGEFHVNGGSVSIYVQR
smiles,measurement,setting,value
"CC(=O)O [Na Acetate, Sodium acetate]",order of stabilizing effects of anions against thermal inactivation of the enzyme,[1],citrate<sulphate<chloride<acetate
same,DE Progression,"[2]; Starch slurry containing 0.7 mM of sodium acetate + 25 ppm of added Ca^++, 1/2 hr",4.15
same,DE Progression,"[2]; Starch slurry containing 0.7 mM of sodium acetate + 25 ppm of added Ca^++, 11/2 hr",8.87
same,DE Progression,"[2]; Starch slurry containing 0.7 mM of sodium acetate + 25 ppm of added Ca^++, 1 hr",6.11
same,DE Progression,"[2]; Starch slurry containing 0.7 mM of sodium acetate + 25 ppm of added Ca^++, 2 hr",10.25
same,DE Progression,"[2]; Starch slurry containing 0.01 M sodium acetate and 25 ppm of added Ca^++, 1/2 hr",5.53
same,DE Progression,"[2]; Starch slurry containing 0.01 M sodium acetate and 25 ppm of added Ca^++, 11/2 hr",10.82
same,DE Progression,"[2]; Starch slurry containing 0.01 M sodium acetate and 25 ppm of added Ca^++, 1 hr",8.64
same,DE Progression,"[2]; Starch slurry containing 0.01 M sodium acetate and 25 ppm of added Ca^++, 2 hr",13.01
"O=C(O)Cc1ccccc1 [Phenylacetic acid, phenylacetic acid]","Half-Life 95° C., pH 5.8",[3],7 minutes
same,"(-Δ G°) stabilization free energy, R T ln F",[3]; pH 5.8,1.0 K cal/mole
same,t 1/2,"[3]; 95° C., pH 5.8",7.0 min
O=S(=O)(O)O [sulphate],order of stabilizing effects of anions against thermal inactivation of the enzyme,[1],citrate<sulphate<chloride<acetate
"CCCC(=O)[O-].[Na+] [CH3 CH2 CH2 COONa, sodium butyrate]","(-Δ G°) stabilization free energy, R T ln F",[3]; pH 5.8,1.5 K cal/mole
same,order of thermal stabilization of the enzyme,"[3]; 95° C., pH 5.8, aliphatic monocarboxylic acid sodium salts, FIG. 1",formate<acetate<propionate<butyrate
same,t 1/2,"[3]; 95° C., pH 5.8",13.3 min
same,additional stabilization attributed to the butyl group,"[3]; relative to formate, 95° C., pH 5.8",about 0.6 K Cal/mol.
Cl [chloride],order of stabilizing effects of anions against thermal inactivation of the enzyme,[1],citrate<sulphate<chloride<acetate
"O=C(O)C(c1ccccc1)c1ccccc1 [Diphenylacetic, diphenylacetic acid]","Half-Life 95° C., pH 5.8",[3],15 minutes
same,"(-Δ G°) stabilization free energy, R T ln F",[3]; pH 5.8,1.5 K cal/mole
same,relative stabilizing effect in words,"[3]; 95° C., pH 5.8, comparison among acids tested",the most
same,t 1/2,"[3]; 95° C., pH 5.8",15.0 min
O=C(O)CC(O)(CC(=O)O)C(=O)O [citrate],order of stabilizing effects of anions against thermal inactivation of the enzyme,[1],citrate<sulphate<chloride<acetate
